Results as given in PubChem BioAssay AID2060905 (Molecular Pharmacology Branch, DTP, NCI, 2025).

System: 282377-053-R-J1-PDC complex spheroid viability
Assay: Anticancer human tumor 282377-053-R-J1-PDC patient-derived colon adenocarcinoma cell line growth inhibition [RAS]
Details: for IC50: curve of first compound; for viability, T/C: stronger effect = lower value
Source text: RAS pathway inhibitors in Combinations in Complex Spheroids
A high-throughput screen of multi-cell type tumor spheroids was designed to identify active combinations of RAS pathway inhibitors and targeted small molecules. Complex spheroids include a stromal component modeled by human endothelial cells (HUVEC) and fibroblasts modeled by human mesenchymal stem cells (MSCs). The concentration ranges selected for each drug and investigational agent were based upon clinically achievable concentrations if the clinical Cmax of the agent was known.
Compounds. The drugs and investigational agents: abemaciclib (NSC768073), cobimetinib (NSC768068), divarasib (GDC6063, NSC841802), docetaxel (NSC628503), GDC-1971 (RLY-1971, NSC841576), gemcitabine (NSC613327), inavolisib (NSC800729), ipatasertib (NSC767898), KB-0742 (NSC834161), MRTX-1133 (NSC836407), osimertinib (NSC779217), RMC-4630 (NSC839698), RMC-6236 (NSC851965), RMC-6291 (NSC852671), Ro-3306 (NSC812927), sapanisertib (NSC764658), SN-38 (NSC673596), staurosporine (NSC755774), SY5609 (NSC837396), and tovorafenib (DAY101, NSC766906), were obtained from the National Cancer Institute (NCI) Developmental Therapeutics Program Chemical Repository. The FDA-approved anticancer drug set is available from the NCI Developmental Therapeutics Program. […] The stock solutions were prepared in dimethyl sulfoxide (DMSO, Sigma-Aldrich, St. Louis, MO, cat. D2650) at 800-fold the tested concentration and stored at -70 degrees C prior to their use. All drugs and investigational agents were tested over a range starting from a high concentration at or near the clinical Cmax and decreasing in half-log increments. If the clinical Cmax for an agent had not been determined, the highest concentration tested was 10 microM.
Cell Culture. All cells were maintained in an incubator at 37 degrees C and 5% CO2 with 95% humidity. The PDC lines were cultured according to standard operating procedures established by the NCI PDMR. All PDCs were thawed and cultured in Matrigel-coated flasks prepared with a working solution of 1X Ham's F-12 nutrient mix, without supplementation (Invitrogen, Waltham, MA, cat. 11765054), 100 U/mL penicillin-streptomycin (Invitrogen, cat. 15140122), and 2.5% Matrigel (Corning Inc., Corning, NY, cat. 354248) for the first three passages. The 362531-283-R-J2-PDC and 782815-120-R-J1-PDC lines were cultured in 6C/Colon 1B media, which includes advanced DMEM/F-12 (Thermo Fisher Scientific, cat. 12634028), 10 mM HEPES (Thermo Fisher Scientific, cat. 15630080), 1X GlutaMAX supplement (Thermo Fisher Scientific, cat. 35050061), 0.1 mg/mL primocin (InvivoGen, San Diego, CA, cat. ant-pm-2), 10% defined fetal bovine serum, heat inactivated (HyClone Laboratories Inc., Logan, UT, cat. SH30070.03HI), 50% L-WRN conditioned media (ATCC, cat. CRL-3276), 1.25 mM N-Acetyl-L-cysteine (Sigma-Aldrich, cat. A9165), 10 mM nicotinamide (Sigma-Aldrich, cat. N0636), 1X B-27 supplement (Thermo Fisher Scientific, cat. 17504044), 1X N-2 supplement (Thermo Fisher Scientific, cat. 17502048), 50 ng/mL human EGF (Thermo Fisher Scientific, cat. PHG0311), and 10 microM Y-27632 dihydrochloride (Tocris Bioscience, cat. 1254). The K12877-001-R-J1-PDC line was cultured in 6I media, which includes all 6C/Colon 1B media plus 10 ng/mL human FGF-10 (PeproTech, cat. 100-26), 1 ng/mL human FGF-2 (PeproTech, cat. 100-18B), 1 µM prostaglandin E2 (Tocris Bioscience, cat. 2296), […] hydrocortisone (Sigma-Aldrich, cat. H4001), and […] bovine insulin (Sigma-Aldrich, cat. I6634). The K86415-001-R-J1-PDC line was cultured in 6D media, which includes all 6C/Colon 1B media components minus the L-WRN conditioned media. The 485176-168-R4-J1-PDC was cultured in PANC media, which includes all 6C/Colon 1B media plus 100 ng/mL human FGF-10 (PeproTech, cat. 100-26), 500 nM SB-431542 (Selleckchem, cat. S1067), and 10 nM gastrin (Tocris Bioscience, cat. 3006). […]
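Note: spheroids exposed to agents for seven days before readout.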
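Throughout, for viability, T/C: luminescence viability as percent of DMSO vehicle control wells.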

Question: Which results are given for `Cc1nc(N2CCC3(CC2)COC(C)C3N)c(CO)nc1Sc1ccnc(N)c1Cl` (configuration not stated) + C#Cc1c(F)ccc2cc(O)cc(-c3ncc4c(N5CC6CCC(C5)N6)nc(OCC56CCCN5CC(F)C6)nc4c3F)c12?
Answer: IC50 (second compound 0.0316 µM): > 10 µM; IC50 (second compound 0.1 µM): > 10 µM; IC50 (second compound 0.316 µM): > 10 µM; IC50 (second compound 1 µM): > 10 µM; IC50 (second compound 3.16 µM): > 10 µM; IC50 (second compound 10 µM): > 10 µM; viability, T/C (second compound 0.0316 µM, first compound 0.0316 µM): 101%; viability, T/C (second compound 0.0316 µM, first compound 0.1 µM): 120%; viability, T/C (second compound 0.0316 µM, first compound 0.316 µM): 114%; viability, T/C (second compound 0.0316 µM, first compound 1 µM): 113%; viability, T/C (second compound 0.0316 µM, first compound 3.16 µM): 95.9%; viability, T/C (second compound 0.0316 µM, first compound 10 µM): 87.3%; viability, T/C (second compound 0.1 µM, first compound 0.0316 µM): 109%; viability, T/C (second compound 0.1 µM, first compound 0.1 µM): 107%; viability, T/C (second compound 0.1 µM, first compound 0.316 µM): 88.7%; viability, T/C (second compound 0.1 µM, first compound 1 µM): 89.8%; viability, T/C (second compound 0.1 µM, first compound 3.16 µM): 99.5%; viability, T/C (second compound 0.1 µM, first compound 10 µM): 89.4%; viability, T/C (second compound 0.316 µM, first compound 0.0316 µM): 107%; viability, T/C (second compound 0.316 µM, first compound 0.1 µM): 114%; viability, T/C (second compound 0.316 µM, first compound 0.316 µM): 95%; viability, T/C (second compound 0.316 µM, first compound 1 µM): 100%; viability, T/C (second compound 0.316 µM, first compound 3.16 µM): 114%; viability, T/C (second compound 0.316 µM, first compound 10 µM): 101%; viability, T/C (second compound 1 µM, first compound 0.0316 µM): 116%; viability, T/C (second compound 1 µM, first compound 0.1 µM): 110%; viability, T/C (second compound 1 µM, first compound 0.316 µM): 110%; viability, T/C (second compound 1 µM, first compound 1 µM): 86%; viability, T/C (second compound 1 µM, first compound 3.16 µM): 98%; viability, T/C (second compound 1 µM, first compound 10 µM): 85%; viability, T/C (second compound 3.16 µM, first compound 0.0316 µM): 99.3%; viability, T/C (second compound 3.16 µM, first compound 0.1 µM): 103%; viability, T/C (second compound 3.16 µM, first compound 0.316 µM): 89.8%; viability, T/C (second compound 3.16 µM, first compound 1 µM): 111%; viability, T/C (second compound 3.16 µM, first compound 3.16 µM): 98.2%; viability, T/C (second compound 3.16 µM, first compound 10 µM): 120%; viability, T/C (second compound 10 µM, first compound 0.0316 µM): 110%; viability, T/C (second compound 10 µM, first compound 0.1 µM): 116%; viability, T/C (second compound 10 µM, first compound 0.316 µM): 114%; viability, T/C (second compound 10 µM, first compound 1 µM): 98.5%; viability, T/C (second compound 10 µM, first compound 3.16 µM): 85.8%; viability, T/C (second compound 10 µM, first compound 10 µM): 131%
